Source: PubChem BioAssay AID1963843 (Molecular Pharmacology Branch, DTP, NCI, 2024)

Tested on: 616215-338-R-J1-PDC complex spheroid viability
Test: Anticancer human tumor 616215-338-R-J1-PDC patient-derived colon adenocarcinoma cell line growth inhibition [POLQ]
Conditions: for viability, T/C: stronger effect = lower value
Description: Multicellular complex tumor spheroid response to Polymerase (POL) inhibitors (novobiocin, ART-558, RP6685) in combination with a variety of drugs and investigational agents in selected tumor cell lines
The POL inhibitors (novobiocin, ART-558, and RP6685) were evaluated both individually and in combination with standard of care and investigational anticancer small molecules within a complex spheroid model of solid tumors. . Complex spheroids include a stromal component modeled by human endothelial cells (HUVEC) and fibroblasts modeled by human mesenchymal stem cells (MSCs). The concentration ranges selected for each drug and investigational agent were based upon clinically achievable concentrations if the clinical Cmax of the agent was known.
Compounds. The drugs and investigational agents: novobiocin (NSC847541), ART-558 (NSC835418), RP-6685 (NSC848927), peposertib (NSC802822), ceralasertib (NSC780249), elimusertib (NSC800525), camonsertib (NSC841442), AZD-1390 (NSC803789), olaparib (NSC753686), talazoparib (NSC767125), rucaparib (NSC756644), sotorasib (NSC818433), MRTX-1133 (NSC836407), SN-38 (NSC673596), topotecan (NSC609699), epotoside (NSC141540), doxorubicin (NSC123127), gemcitabine (NSC613327), 5-fluorouracil (NSC19893), paclitaxel (NSC125973), vemurafenib (NSC761431), MSA-2 (NSC828583), SN-011 (NSC837082), adavosertib (NSC754352), prexasertib (NSC758257), carboplatin (NSC241240) and oxaliplatin (NSC266046), were obtained from the National Cancer Institute (NCI) Developmental Therapeutics Program Chemical Repository (21). The FDA-approved anticancer drug set is available from the Developmental Therapeutics Program at https://dtp.cancer.gov/organization/dscb/obtaining/. […] The stock solutions were prepared in dimethyl sulfoxide (DMSO, Sigma-Aldrich, St. Louis, MO, cat. D2650), except for the platinum compounds which were prepared in saline (Quality Biological, Gaithersburg, MD, cat. 114-055-101), at 800-fold the tested concentration and stored at -70 degrees C prior to their use. All drugs and investigational agents were tested over a range starting from a high concentration at or near the clinical Cmax and decreasing in half-log increments. If the clinical Cmax for an agent had not been determined, the highest concentration tested was 10 microM, except for SN-38, which was tested at a high concentration of 1 microM.
Cell Culture. All cells were maintained in an incubator at 37 degrees C and 5% CO2 with 95% humidity. The PDC lines were cultured according to standard operating procedures established by the NCI PDMR (https://pdmr.cancer.gov). Table 3 of the manuscript, lists the cell lines along with the number of the three cell types plated to form the mct-spheroids and media for tumor cell growth. After thawing, all PDC lines, except 997537-175-T-J1-PDC and 415267-285-R-J2-PDC, were cultured in Matrigel-coated flasks prepared with a working solution of 1X Ham's F-12 nutrient mix, without supplementation (Thermo Fisher Scientific, cat. 11765054), 100 U/mL penicillin-streptomycin (Thermo Fisher Scientific, cat. 15140122), and 2.5% Matrigel (Corning Inc., Corning, NY, cat. 354248) for the first three passages. The two PDC lines 997537-175-T-J1-PDC and 415267-285-R-J2-PDC were cultured on uncoated flasks. The 857933-349-R-J2-PDC line was cultured in 6C/Colon 1B media containing advanced DMEM/F-12 (Thermo Fisher Scientific, cat. 12634028), 10 mM HEPES (Thermo Fisher Scientific, cat. 15630080), 1X GlutaMAX supplement (Thermo Fisher Scientific, cat. 35050061), 0.1 mg/mL primocin (InvivoGen, San Diego, CA, cat. ant-pm-2), 10% defined fetal bovine serum, heat inactivated (HyClone Laboratories Inc., Logan, UT, cat. SH30070.03HI), 50% L-WRN conditioned media (ATCC, cat. CRL-3276), 1.25 mM N-Acetyl-L-cysteine (Sigma-Aldrich, cat. A9165), 10 mM nicotinamide (Sigma-Aldrich, cat. N0636), 1X B-27 supplement (Thermo Fisher Scientific, cat. 17504044), 1X N-2 supplement (Thermo Fisher Scientific, cat. […]
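Note: spheroids exposed to compounds for one week before readout.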
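Throughout, for viability, T/C: percent viability relative to DMSO vehicle wells taken as 100%.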

COc1cccc2c1C(=O)c1c(O)c3c(c(O)c1C2=O)CC(O)(C(=O)CO)CC3OC1CC(N)C(O)C(C)O1 (centres undefined) + COC1C(OC(N)=O)C(O)C(Oc2ccc3c(O)c(NC(=O)c4ccc(O)c(CC=C(C)C)c4)c(=O)oc3c2C)OC1(C)C
IC50 (curve of first compound, second compound 0.0316 µM): 948 nM
IC50 (curve of first compound, second compound 0.1 µM): 762 nM
IC50 (curve of first compound, second compound 0.316 µM): 864 nM
IC50 (curve of first compound, second compound 1 µM): 964 nM
IC50 (curve of first compound, second compound 3.16 µM): 778 nM
IC50 (curve of first compound, second compound 10 µM): 1410 nM
viability, T/C (second compound 0.0316 µM, first compound 0.0316 µM): 98.8%
viability, T/C (second compound 0.0316 µM, first compound 0.1 µM): 102%
viability, T/C (second compound 0.0316 µM, first compound 0.316 µM): 79.2%
viability, T/C (second compound 0.0316 µM, first compound 1 µM): 52.5%
viability, T/C (second compound 0.0316 µM, first compound 3.16 µM): 8.11%
viability, T/C (second compound 0.0316 µM, first compound 10 µM): 1.26%
viability, T/C (second compound 0.1 µM, first compound 0.0316 µM): 110%
viability, T/C (second compound 0.1 µM, first compound 0.1 µM): 100%
viability, T/C (second compound 0.1 µM, first compound 0.316 µM): 69%
viability, T/C (second compound 0.1 µM, first compound 1 µM): 49.2%
viability, T/C (second compound 0.1 µM, first compound 3.16 µM): 9.57%
viability, T/C (second compound 0.1 µM, first compound 10 µM): 1.74%
viability, T/C (second compound 0.316 µM, first compound 0.0316 µM): 106%
viability, T/C (second compound 0.316 µM, first compound 0.1 µM): 97.8%
viability, T/C (second compound 0.316 µM, first compound 0.316 µM): 71.8%
viability, T/C (second compound 0.316 µM, first compound 1 µM): 55.5%
viability, T/C (second compound 0.316 µM, first compound 3.16 µM): 5.27%
viability, T/C (second compound 0.316 µM, first compound 10 µM): 0.89%
viability, T/C (second compound 1 µM, first compound 0.0316 µM): 118%
viability, T/C (second compound 1 µM, first compound 0.1 µM): 110%
viability, T/C (second compound 1 µM, first compound 0.316 µM): 86.5%
viability, T/C (second compound 1 µM, first compound 1 µM): 53.7%
viability, T/C (second compound 1 µM, first compound 3.16 µM): 6.46%
viability, T/C (second compound 1 µM, first compound 10 µM): 0.25%
viability, T/C (second compound 3.16 µM, first compound 0.0316 µM): 102%
viability, T/C (second compound 3.16 µM, first compound 0.1 µM): 105%
viability, T/C (second compound 3.16 µM, first compound 0.316 µM): 79.9%
viability, T/C (second compound 3.16 µM, first compound 1 µM): 41.9%
viability, T/C (second compound 3.16 µM, first compound 3.16 µM): 9.53%
viability, T/C (second compound 3.16 µM, first compound 10 µM): 0.27%
viability, T/C (second compound 10 µM, first compound 0.0316 µM): 99.6%
viability, T/C (second compound 10 µM, first compound 0.1 µM): 102%
viability, T/C (second compound 10 µM, first compound 0.316 µM): 76.2%
viability, T/C (second compound 10 µM, first compound 1 µM): 70.4%
viability, T/C (second compound 10 µM, first compound 3.16 µM): 7.3%
viability, T/C (second compound 10 µM, first compound 10 µM): 0.34%

Nc1ccc(C#CCN(C(=O)Cc2ncc(C(F)(F)F)cc2C(F)(F)F)c2ccc(F)cc2)nn1
viability, T/C (compound 0.0316 µM): 103% [middle of 13 runs]
viability, T/C (compound 0.1 µM): 104% [middle of 13 runs]
viability, T/C (compound 0.316 µM): 105% [middle of 13 runs]
viability, T/C (compound 1 µM): 102% [middle of 13 runs]
viability, T/C (compound 3.16 µM): 102% [middle of 13 runs]
viability, T/C (compound 10 µM): 94.5% [middle of 13 runs]
IC50 (compound alone, run of 12/05/2023): > 10000 nM
